ChEMBL document CHEMBL1201862, “PubChem BioAssay data set” (2004)
Where “and” joins values, the source holds several entries; their conditions need not be identical. Equal entries are not always repeated.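 Grown in 96-well plates, cells were treated for 48 hours with each compound at five concentrations. Insufficient inhibition: endpoint recorded as highest concentration tested. The concentration for 50% growth inhibition is given as GI50.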 Calls of active or inactive are those of the source. Rule as the data show it: active = GI50 up to about 1.1 µM and inactive = higher. Non-standard residues stand in square brackets, D forms with d. Residues, ends and D or L forms follow the SMILES beside them. ξ: configuration not given here. *: point of attachment. ξF = NC(Cc1ccccc1)C(=O)O; Cbz = O=C(OCc1ccccc1)*; Aib = CC(C)(N)C(=O)O

Columns and labels:
Assay in all cases: inhibition of tumour cell growth, NCI panel, 48 h
[1] = test system: SNB-78
[2] = test system: M19-MEL
[3] = test system: HOP-18
[4] = test system: DLD-1
[5] = test system: DMS-273
[6] = test system: RXF 631
[7] = test system: MDA-N
[8] = test system: BT-549
[9] = test system: LXFL 529

| SMILES | GI50 [1] | GI50 [2] | GI50 [3] | GI50 [4] | GI50 [5] | GI50 [7] | GI50 [9] | other results |
| --- | --- | --- | --- | --- | --- | --- | --- | --- |
| Nc1ccn(C2OC(COP(=O)(O)Oc3ccccc3)C(O)C2O)c(=O)n1 (stereo unspecified) | > 100 µM (inactive) | 50.2 µM (inactive) | > 74.5 µM (inactive) | > 100 µM (inactive) | 18.4 µM (inactive) | – | – | – |
| C=CCCCC12CCCc3cccc(c31)NC2=O (stereo unspecified) | – | – | – | 19.6 µM (inactive) | – | – | – | GI50 [6]: 20.6 µM (inactive) |
| CCOC(=O)CNC(=O)C(Cc1ccccc1)NC(=O)C(C)(C)NC(=O)OCc1ccccc1 (stereo unspecified) (Cbz-[Aib]-[ξF]-Gly-OEt) | – | – | – | – | – | > 100 µM (inactive) | – | – |
| CCN(CC)CCn1c(=O)c2c(C)c3oc4ccccc4oc3c(C)c2c1=O | – | – | – | – | – | > 100 µM (inactive) | – | GI50 [8]: > 100 µM (inactive) |
| C/C(CCOC1CCCCO1)=C(\C)[Si](C)(C)C (stereo unspecified) | > 100 µM (inactive) | > 100 µM (inactive) | – | > 100 µM (inactive) | – | – | > 100 µM (inactive) | – |
| O=C(Nc1nnc(S)[nH]1)C(=O)C(c1cnc2ccc([N+](=O)[O-])cc2n1)[N+](=O)[O-] (stereo unspecified) | > 100 µM (inactive) | > 100 µM (inactive) | > 100 µM (inactive) | > 100 µM (inactive) | – | – | > 100 µM (inactive) | GI50 [6]: > 100 µM (inactive) |
| c1cc(CNC2C3CCC(C3)C2c2c[nH]c3ccccc23)cc(CNC2C3CCC(C3)C2c2c[nH]c3ccccc23)c1 (stereo unspecified) | – | – | – | – | – | – | – | GI50 [8]: 1.73 µM (inactive) and 1.75 µM (inactive) |
| CC1(C)Cc2nnsc2C2=C1C(=O)CCS2 | – | – | > 100 µM (inactive) | > 100 µM (inactive) | > 100 µM (inactive) | – | > 100 µM (inactive) | – |
| O=c1sc2ccccc2n1CC1CS1 (stereo unspecified) | – | > 100 µM (inactive) | – | – | > 100 µM (inactive) | – | – | – |
| C[n+]1cccc2c(=O)c3ccccc3oc21 | – | – | – | – | – | > 100 µM (inactive) | – | – |
| COc1ccc(-n2cnnc2-c2nsc3ccccc23)cc1 | > 100 µM (inactive) | > 100 µM (inactive) | 36.6 µM (inactive) | – | 44.7 µM (inactive) | – | > 100 µM (inactive) | – |
| O=c1[nH]c(=S)[nH]c2c(C3OC(CO)C(O)C3O)nsc12 (stereo unspecified) | – | – | – | – | – | > 100 µM (inactive) | – | GI50 [8]: > 100 µM (inactive) |
| COc1ccc(N2C(=O)C(=O)C3(CCCCC3)C2=O)c2ccccc12 | – | – | – | – | – | > 10 µM (inactive) | – | – |
